Reference: ChEMBL document CHEMBL3621062, “Discovery, SAR, and X-ray Binding Mode Study of BCATm Inhibitors from a Novel DNA-Encoded Library” (ACS Med Chem Lett, 2015)

Biological target: T1, Branched-chain-amino-acid aminotransferase, mitochondrial (Homo sapiens, UniProt O15382)
T1 sequence (O15382 whole entry): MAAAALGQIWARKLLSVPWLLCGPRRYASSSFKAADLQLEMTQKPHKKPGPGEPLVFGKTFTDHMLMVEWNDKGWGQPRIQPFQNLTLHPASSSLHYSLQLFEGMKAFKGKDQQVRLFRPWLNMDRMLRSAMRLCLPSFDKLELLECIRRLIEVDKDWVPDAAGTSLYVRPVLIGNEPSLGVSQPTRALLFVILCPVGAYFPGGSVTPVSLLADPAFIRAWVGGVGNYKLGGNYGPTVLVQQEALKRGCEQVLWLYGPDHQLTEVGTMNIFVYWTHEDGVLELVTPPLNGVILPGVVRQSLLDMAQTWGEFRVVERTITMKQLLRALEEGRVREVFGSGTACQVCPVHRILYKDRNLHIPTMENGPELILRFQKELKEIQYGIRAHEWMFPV
Test: Inhibition of human BCATm after 10 mins by fluorescent assay

Row | IC50 [µM] | SMILES
1 | 64.6 | CNC(=O)c1ccc(-c2ccccc2C)cc1O[C@@H]1CCN(C(=O)c2ccc(Br)s2)C1
2 | > 100 | CNC(=O)c1ccccc1OC1CCN(C(=O)c2ccc(Br)s2)C1 (stereo not given)
3 | > 100 | CNC(=O)c1ccc(-c2cccc(C(=O)O)c2)cc1OC1CCN(C(=O)c2cc(Br)ccc2NC(=O)OC(C)(C)C)C1 (stereo not given)
4 | 2 | CNC(=O)c1ccc(-c2ccccc2NS(C)(=O)=O)cc1O[C@@H]1CCN(C(=O)c2ccc(Br)s2)C1
5 | 2.8 | CNC(=O)c1ccc(-c2ccccc2NS(C)(=O)=O)cc1O[C@@H]1CCN(C(=O)c2ccc(Cl)s2)C1
6 | 15.1 | CNC(=O)c1ccc(-c2ccccc2NS(C)(=O)=O)cc1O[C@@H]1CCN(C(=O)c2ccc(C#N)s2)C1
7 | > 100 | CNC(=O)c1ccc(-c2ccccc2)cc1O[C@@H]1CCN(C(=O)c2ccc(Br)s2)C1
8 | > 100 | CNC(=O)c1ccc(-c2cccc(C(=O)O)c2)cc1OC1CCN(C(=O)c2cc(Br)ccc2N)C1 (stereo not given)
9 | 3.9 | CNC(=O)c1ccc(-c2ccccc2NS(C)(=O)=O)cc1OC1CCN(C(=O)c2ccc(Br)s2)C1 (racemic)
10 | 74.1 | CNC(=O)c1ccc(-c2cccc(C(=O)O)c2)cc1OC1CCN(C(=O)c2ccc(Br)s2)C1 (stereo not given)
